Assay results as given in patent US5061794A, “Cephalosporin derivatives, and antibacterial agents” (priority 1986, dated 1991).
≈ marks a conversion by molar mass, not a printed value. Read-outs that look alike come from different tables or passages of the source.

Experiments:
P. vulgaris No. 33 = test: in vitro antibacterial activity, agar plate dilution method (MIC); format: cell-based; settings: Proteus vulgaris, 10^6 CFU/ml
How it was run: (§1)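 Agar dilution: MH agar + graded drug conc.; inoculum 10^6 CFU/ml (overnight MH broth culture, one loopful); 37° C., 16 h; MIC, μg/ml.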

M. morganii GN5407 = test: as above; format: cell-based; settings: Morganella morganii, GN5407, 16 h, read-out: Minimum Inhibitory Concentration (MIC), *M. morganii GN5407, lactamase-producing strain; 10^6 CFU/ml
How it was run: as §1

K. oxytoca GN10650 = test: as above; format: cell-based; settings: Klebsiella oxytoca, GN10650, 16 h, read-out: Minimum Inhibitory Concentration (MIC), *K. oxytoca GN10650, lactamase-producing strain; 10^6 CFU/ml
How it was run: as §1

K. pneumoniae No. 42 = test: as above; format: cell-based; settings: Klebsiella pneumoniae, NO.42, 16 h, read-out: Minimum Inhibitory Concentration (MIC), *K. pneumoniae No. 42, lactamase-producing strain; 10^6 CFU/ml
How it was run: as §1

E. cloacae Nek 39 = test: as above; format: cell-based; settings: Enterobacter cloacae, NEK39, 16 h, read-out: Minimum Inhibitory Concentration (MIC), *E. cloacae Nek 39, lactamase-producing strain; 10^6 CFU/ml
How it was run: as §1

E. coli NIHJ JC2 = test: as above; format: cell-based; settings: Escherichia coli, NIHJJC2, 16 h, read-out: Minimum Inhibitory Concentration (MIC), E. coli NIHJ JC2, 10^6 CFU/ml, 37° C.
How it was run: as §1

S. marcescens IAM 1184 = test: as above; format: cell-based; settings: Serratia marcescens, IAM1184, 16 h, S. marcescens IAM 1184; 10^6 CFU/ml; read-out: Minimum Inhibitory Concentration (MIC)
How it was run: as §1

E. cloacae 963 = test: as above; format: cell-based; settings: 10^6 CFU/ml
How it was run: as §1

S. marcescens No. 16-2 = test: as above; format: cell-based; settings: Serratia marcescens, NO.162, 16 h
How it was run: as §1

P. vulgaris HX-19 = test: as above; format: cell-based; settings: Proteus vulgaris, HX19, 16 h, P. vulgaris HX-19; 10^6 CFU/ml; read-out: Minimum Inhibitory Concentration (MIC)
How it was run: as §1

K. pneumoniae PCI-602 = test: as above; format: cell-based; settings: Klebsiella pneumoniae, PCI602, 16 h, 10^6 CFU/ml
How it was run: as §1

E. coli GN5482 = test: as above; format: cell-based; settings: Escherichia coli, GN5482, 16 h
How it was run: as §1

S. aureus 209P NIHJ-JC1 = test: as above; format: cell-based; settings: Staphylococcus aureus, 16 h, read-out: Minimum Inhibitory Concentration (MIC)
How it was run: as §1

A. calcoaceticus No. 4 = test: as above; format: cell-based, Acinetobacter calcoaceticus; settings: Acinetobacter calcoaceticus, NO.4, 16 h, 10^6 CFU/ml
How it was run: as §1

[1] = system: Enterobacter cloacae GN 5797; test: β-lactamase inducibility; format: cell-based; settings: antibiotic at 50, 10 and 1 μg/ml; cephaloridine as substrate
Method: The assay method for induction of β-lactamase by β-latam antibiotics was as follows:
The test organism, Enterobacter cloacae GN 5797, was grown overnight in Mueller Hinton broth (Dlfco Laboratories, Detroit, Mich.) at 37° C. The culture was diluted 10-fold into 20 ml of the flesh medium and incubated with shaking at 37° C. After 2 hours of incubation, antibiotics were added to final concentrations of 50 μg/ml, 10 μg/ml and 1 μg/ml, and the incubation was continued. At 1 hour intervals after the addition of antibiotic, 3 ml of sample was taken, and immediately added with 0.1 ml of 50 mM sodium azide. The cells were harvested and washed with 50 mM phosphate buffer (ph 7.0). The cells were suspended in 5 ml of 50 mM phosphate buffer and disrupted with a sonicater in an ice-water bath. The broken cells were centrifuged at 16,500 G for 40 minutes at 4° C., and the resulting supernatant fluid was used as the crude enzyme. β-Lactamase activity was determined by a sopectrophotometric method (Antmicrob. Agents Chemother. 17, 355-358, 1980) with cephaloridine as substrate. The concentration of protein was determined by the method of Lowry (J. Biol. Chem. 193, 265-275, 1951). […] As a representative example, the compound of EXAMPLE 50 was administered to mice by means of subcutaneous administration, and the concentration in the blood was measured.

Ps. cepacia 23 = test: in vitro antibacterial activity, agar plate dilution method (MIC); format: cell-based, Pseudomonas cepacia; settings: Burkholderia cepacia, 16 h; Ps. cepacia 23; 10^6 CFU/ml; read-out: Minimum Inhibitory Concentration (MIC)
How it was run: as §1

E. coli CSH(RE45) = test: microbe, parasite or virus in culture; format: cell-based; settings: Escherichia coli, 16 h, read-out: Minimum Inhibitory Concentration (MIC), *E. coli CSH(RE45), lactamase-producing strain; 10^6 CFU/ml
How it was run: as §1

E. coli CSH2 (RK1) = test: microbe, parasite or virus in culture; format: cell-based; settings: Escherichia coli, 16 h, read-out: Minimum Inhibitory Concentration (MIC), *E. coli CSH2 (RK1), lactamase-producing strain; 10^6 CFU/ml
How it was run: as §1

Ps. aeruginosa IF03445 = test: in vitro antibacterial activity, agar plate dilution method (MIC); format: cell-based, Pseudomonas aeruginosa; settings: Pseudomonas aeruginosa, IF03445, 16 h, read-out: Minimum Inhibitory Concentration (MIC), Ps. aeruginosa IF03445; 10^6 CFU/ml
How it was run: as §1

Ps. aeruginosa AKR17 = test: as above; format: cell-based, Pseudomonas aeruginosa; settings: Pseudomonas aeruginosa, AKR17, 16 h, read-out: Minimum Inhibitory Concentration (MIC), Ps. aeruginosa AKR17; 10^6 CFU/ml
How it was run: as §1

Ps. aeruginosa AK 109 = test: as above; format: cell-based, Pseudomonas aeruginosa; settings: Pseudomonas aeruginosa, AK109, 16 h, read-out: Minimum Inhibitory Concentration (MIC)
How it was run: as §1

[2] = concentration in blood of mice after subcutaneous administration; format: in vivo, mice (ddY type, male); settings: mouse, sc, 20 mg/kg
[3] = NO.33, 16 h, read-out: Minimum Inhibitory Concentration (MIC), *P. vulgaris No. 33, lactamase-producing strain
[4] = Enterobacter cloacae, 963, 16 h, read-out: Minimum Inhibitory Concentration (MIC), E. cloacae 963
[5] = read-out: Minimum Inhibitory Concentration (MIC)
[6] = read-out: Minimum Inhibitory Concentration (MIC), K. pneumoniae PCI-602
[7] = S. aureus 209P NIHJ-JC1, 10^6 CFU/ml, 37° C., 16 hours
[8] = A. calcoaceticus No. 4, read-out: Minimum Inhibitory Concentration (MIC)
[9] = Ps. aeruginosa AK 109, 10^6 CFU/ml

Structure (SMILES) | MIC (P. vulgaris No. 33; [3]) | MIC (M. morganii GN5407) | MIC (K. oxytoca GN10650) | MIC (K. pneumoniae No. 42) | MIC (E. cloacae Nek 39) | MIC (E. coli NIHJ JC2) | MIC (S. marcescens IAM 1184) | MIC (E. cloacae 963; [4]) | MIC (S. marcescens No. 16-2; [5]) | MIC (P. vulgaris HX-19) | MIC (K. pneumoniae PCI-602; [6]) | MIC (E. coli GN5482; [5]) | MIC (S. aureus 209P NIHJ-JC1; [7]) | MIC (A. calcoaceticus No. 4; [8]) | β-lactamase inducibility [1] | MIC (Ps. cepacia 23) | MIC (E. coli CSH(RE45)) | MIC (E. coli CSH2 (RK1)) | MIC (Ps. aeruginosa IF03445) | MIC (Ps. aeruginosa AKR17) | other results
CC(C)(O/N=C(\C(=O)N[C@@H]1C(=O)N2C(C(=O)O)=C(CSc3nnc(-c4ccc(O)c(O)c4)o3)CS[C@H]12)c1csc(N)n1)C(=O)O [Ex. 11, disodium 7β-[2-(2-aminothiazol-4-yl)-(1-carboxylate-1-methylethoxyimino)acetamido]-3-[5(3,4-dihydroxyphenyl)-1,3,4-oxadiazol-2-yl]thiomethyl-3-cephem-4-carboxylate] | 0.025 µg/mL | 0.05 µg/mL | 0.0125 µg/mL | 0.025 µg/mL | 0.05 µg/mL | 0.1 µg/mL | 0.0125 µg/mL | 0.025 µg/mL | 0.39 µg/mL | < 0.006 µg/mL | < 0.006 µg/mL | 0.39 µg/mL | 25 µg/mL | 0.05 µg/mL | no substantial β-lactamase-inducing activity was observed | < 0.006 µg/mL | 1.56 µg/mL | < 0.006 µg/mL | 0.39 µg/mL | 1.56 µg/mL | MIC (Ps. aeruginosa AK 109; [9]): 0.2 µg/mL
CC(C)(O/N=C(\C(=O)N[C@@H]1C(=O)N2C(C(=O)O)=C(CSc3nnc(-c4ccc(O)c(O)c4)s3)CS[C@H]12)c1csc(N)n1)C(=O)O [Ex. 34] | 0.025 µg/mL (≈ 0.036 µM) | 0.05 µg/mL (≈ 0.0721 µM) | 0.025 µg/mL (≈ 0.036 µM) | 0.0125 µg/mL (≈ 0.018 µM) | 0.1 µg/mL (≈ 0.144 µM) | 0.1 µg/mL (≈ 0.144 µM) | 0.025 µg/mL (≈ 0.036 µM) | – | 0.1 µg/mL (≈ 0.144 µM) | < 0.006 µg/mL | – | – | – | 0.05 µg/mL (≈ 0.0721 µM) | no substantial β-lactamase-inducing activity was observed | < 0.006 µg/mL | < 0.006 µg/mL | < 0.006 µg/mL | 0.39 µg/mL (≈ 0.562 µM) | 1.56 µg/mL (≈ 2.25 µM) | MIC (E. cloacae 963; Enterobacter cloacae, 16 h, E. cloacae 963, read-out: Minimum Inhibitory Concentration (MIC)): 0.1 µg/mL (≈ 0.144 µM); MIC (K. pneumoniae PCI-602; K. pneumoniae PCI-602, read-out: Minimum Inhibitory Concentration (MIC)): 0.0125 µg/mL (≈ 0.018 µM); MIC (E. coli GN5482; read-out: Minimum Inhibitory Concentration (MIC), *E. coli GN5482, lactamase-producing strain, 10^6 CFU/ml): 0.78 µg/mL (≈ 1.12 µM); MIC (S. aureus 209P NIHJ-JC1): 12.5 µg/mL (≈ 18 µM); MIC (Ps. aeruginosa AK 109; [9]): 0.1 µg/mL (≈ 0.144 µM)
CC(C)(ON=C(C(=O)NC1C(=O)N2C(C(=O)O)=C(CSc3nc(C(=O)O)c(-c4ccc(O)c(O)c4)s3)CSC12)c1csc(N)n1)C(=O)O (stereo not drawn) [Ex. 50, trisodium 7β-[2-(2-aminothizaol-4-yl)-2-(1-carboxylate-1-methylethoxyimino)acetamido]-3-[4-carboxylate-5-(3,4-dihydroxyphenyl)thiazol-2-yl]-thiomethyl-3-cephem-4-carboxylate] | – | 0.025 µg/mL | 0.025 µg/mL | 0.05 µg/mL | 0.025 µg/mL | 0.39 µg/mL | 0.025 µg/mL | 0.0125 µg/mL | – | < 0.006 µg/mL | < 0.006 µg/mL | 0.39 µg/mL | 50 µg/mL | – | – | < 0.006 µg/mL | 0.0125 µg/mL | < 0.006 µg/mL | 0.39 µg/mL | 1.56 µg/mL | MIC (P. vulgaris No. 33; 16 h, *P. vulgaris No. 33, lactamase-producing strain, read-out: Minimum Inhibitory Concentration (MIC)): < 0.006 µg/mL; MIC (S. marcescens No. 16-2; read-out: Minimum Inhibitory Concentration (MIC), *S. marcescens No. 16-2, lactamase-producing strain, 10^6 CFU/ml): 0.78 µg/mL; MIC (A. calcoaceticus No. 4; read-out: Minimum Inhibitory Concentration (MIC), A. calcoaceticus No. 4): 0.1 µg/mL; concentration at 0.125 h ([2]; 7.5 min): 60500 ng/mL; concentration at 0.25 h ([2]; 15 min): 67000 ng/mL; concentration at 0.5 h ([2]; 30 min): 52300 ng/mL; concentration at 1 h ([2]; 60 min): 18500 ng/mL; concentration at 2 h ([2]; 120 min): 3100 ng/mL; concentration at 4 h ([2]; 240 min): 220 ng/mL; MIC (Ps. aeruginosa AK 109): 0.39 µg/mL
CC(C)(O/N=C(\C(=O)N[C@@H]1C(=O)N2C(C(=O)O)=C(CSc3nc4cc(O)c(O)cc4o3)CS[C@H]12)c1csc(N)n1)C(=O)O [Example 76, disodium 7 β-[2-(2-aminothiazol-4-yl)-2-(1-carboxylate-1-methylethoxyimino)acetamido]-3-(5,6-dihydroxybenzoxazol-2-yl) thiomethyl-3-cephem-4-carboxylate] | – | – | – | – | – | – | – | – | – | – | – | – | – | – | no substantial β-lactamase-inducing activity was observed | – | – | – | – | – | –
